Measurements: patent publication US20090203605A1, “Methods For Treating A Condition Characterized By Dysfunction In Protein Homeostasis” (THE SCRIPPS RESEARCH INSTITUTE, priority 2008, published 2009)
Blank lines part the entries; values can stand above or below the compound they belong to.

Assays:
L444P GC = target: T1, L444P GC (Homo sapiens, UniProt P04062, L483P); experiment: GC activity assay in L444P GC Gaucher patient-derived fibroblasts; type: cell-based; conditions: for L444P GC activity, maximum fold increase: 30 μM
T1 construct: a L444P GC Gaucher fibroblast cell line (GM08760); host or cells: Gaucher patient-derived skin fibroblasts
T1 sequence (P04062 40-536 L483P): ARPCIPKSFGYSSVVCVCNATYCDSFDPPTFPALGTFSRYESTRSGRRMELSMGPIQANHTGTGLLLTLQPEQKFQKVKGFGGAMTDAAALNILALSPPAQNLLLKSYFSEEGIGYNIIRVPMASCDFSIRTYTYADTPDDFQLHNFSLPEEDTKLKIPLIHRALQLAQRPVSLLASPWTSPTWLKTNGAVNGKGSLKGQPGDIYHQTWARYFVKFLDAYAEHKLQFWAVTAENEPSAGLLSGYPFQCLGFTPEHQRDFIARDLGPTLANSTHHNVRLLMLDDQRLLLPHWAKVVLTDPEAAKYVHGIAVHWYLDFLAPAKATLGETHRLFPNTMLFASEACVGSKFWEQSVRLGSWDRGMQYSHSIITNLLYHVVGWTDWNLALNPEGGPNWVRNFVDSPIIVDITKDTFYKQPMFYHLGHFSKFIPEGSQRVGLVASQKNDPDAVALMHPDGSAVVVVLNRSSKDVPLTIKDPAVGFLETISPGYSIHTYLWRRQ

Ca^2+ channel = conditions: cited from earlier work; for IC50: previously reported, Li et al., J Med Chem 35: 3246-3253, 1992, read-out: Ca^2+ channel blocker IC50
G269S/1278insTATC HexA = target: T2, G269S/1278insTATC HexA (Homo sapiens, UniProt P06865, G269S); experiment: Hex α-site cell assay in Tay-Sachs fibroblast cell line; type: cell-based; conditions: ADNJ 20 to 50 μM, exposed once without media changes, after 192 h
T2 construct: host or cells: Tay-Sachs patient fibroblasts, lysed for the MUGS assay
T2 sequence (P06865 89-529 G269S): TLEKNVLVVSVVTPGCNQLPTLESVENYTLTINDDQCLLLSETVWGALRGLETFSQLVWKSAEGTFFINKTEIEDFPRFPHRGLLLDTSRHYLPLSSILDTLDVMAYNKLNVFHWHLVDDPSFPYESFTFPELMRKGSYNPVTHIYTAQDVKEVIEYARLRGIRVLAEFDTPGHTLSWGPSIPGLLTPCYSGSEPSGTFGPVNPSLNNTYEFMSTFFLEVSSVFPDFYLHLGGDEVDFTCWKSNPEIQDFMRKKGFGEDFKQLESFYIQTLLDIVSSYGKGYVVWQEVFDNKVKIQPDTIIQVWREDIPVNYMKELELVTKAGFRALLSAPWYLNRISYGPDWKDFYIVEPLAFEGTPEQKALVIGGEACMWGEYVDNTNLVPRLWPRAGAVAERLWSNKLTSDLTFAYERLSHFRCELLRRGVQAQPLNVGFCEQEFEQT
T2 sequence (P07686 122-556 partner): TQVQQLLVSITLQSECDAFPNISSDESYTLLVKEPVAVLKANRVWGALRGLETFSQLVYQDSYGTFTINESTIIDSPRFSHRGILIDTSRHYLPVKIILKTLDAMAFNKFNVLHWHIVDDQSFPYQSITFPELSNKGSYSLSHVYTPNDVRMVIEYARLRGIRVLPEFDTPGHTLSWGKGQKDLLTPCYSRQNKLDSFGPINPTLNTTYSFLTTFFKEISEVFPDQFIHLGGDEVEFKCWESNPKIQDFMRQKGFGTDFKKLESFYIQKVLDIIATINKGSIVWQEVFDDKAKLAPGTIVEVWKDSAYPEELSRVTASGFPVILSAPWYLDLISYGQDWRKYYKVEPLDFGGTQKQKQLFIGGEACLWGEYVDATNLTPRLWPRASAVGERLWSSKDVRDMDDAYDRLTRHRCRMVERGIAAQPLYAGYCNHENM
Excerpt: We therefore evaluated the ability of these proteostasis regulators to restore partial function to HexA, a heterodimeric enzyme composed of α- and β-subunits that degrades GM2 gangliosides in the lysosome. Mutations in the β-hexosaminidase A α-subunit can cause extensive ERAD of HexA, leading to Tay-Sachs disease (TSD). Jeyakumar et al., Neuropathol Appl Neurobiol 28: 343-357, 2002. HexA activity was studied in a compound heterozygous fibroblast cell line (GM13204), harboring one of the most prevalent β-hexosaminidase A α-subunit mutations (G269S) found in Tay-Sachs patients and a second mutated HexA allele (1278insTATC) with a stop codon. […] Tropak et al., J Biol Chem 279: 13478-13487, 2004.
The Hex α-site cell assay has been previously described. Tropak et al., J Biol Chem 279: 13478-13487, 2004. Cells were plated as described for the GC assay. After 1 to 8 days of incubation the medium was removed, cells were washed with PBS, and lysed with 60 μl of 10 mM citrate/phosphate buffer pH 4.2 (CP buffer) containing 0.5% human serum albumin and 0.5% Triton X-100. 30 μl of aliquots were transferred to a 96-well plate and Hex α-site activity was measured by adding 30 μl of 3.2 mM MUGS in CP buffer to each well and incubating the plates at 37° C. for 1 to 7 hour. The reaction was stopped by adding 200 μl of 0.1 M 2-amino-2-methyl-1-propanol pH 10.5 and the fluorescence was measured (excitation 365 nm, emission 450 nm).

[1] = 7 days, intact cell GC activity assay (FIG. 19D)

Structure (SMILES): C/C=C(/C)C(=O)O[C@H]1C(C)=C2[C@H]([C@@H]1OC(=O)CCCCCCC)[C@@](C)(OC(C)=O)C[C@H](OC(=O)CCC)[C@@]1(O)[C@H]2OC(=O)[C@@]1(C)O [thapsigargin]
effect on L444P GC folding, trafficking and lysosomal activity (L444P GC; thapsigargin (FIG. 25)): does not enhance
concentration above which L444P GC activity is decreased significantly (L444P GC; thapsigargin alone, 7-day incubation): > 1 nM
effect on GC activity in L444P GC cells (L444P GC; varying concentrations co-applied with 10 μM diltiazem, 7 days): dose-dependent decrease of GC activity

Structure (SMILES): C=C[C@H]1C[N@@]2CC[C@H]1C[C@H]2[C@H](O)c1ccnc2ccc(OC)cc12 [quinine]
effect on L444P GC activity (L444P GC; IP3R inhibitors (FIG. 33)): None of the compounds enhanced L444P GC activity

Structure (SMILES): C[CH2][Hg][S]c1ccccc1C(=O)[O-].[Na+] [thimerosal]
effect on L444P GC activity (L444P GC; IP3R inhibitors (FIG. 33)): None of the compounds enhanced L444P GC activity

Structure (SMILES): CCN(CC)CCCC(C)Nc1ccnc2cc(Cl)ccc12 (stereo not drawn) [chloroquinine]
effect on L444P GC activity (L444P GC; IP3R inhibitors (FIG. 33)): None of the compounds enhanced L444P GC activity

Structure (SMILES): C1CCCC2CCCN3CCC(CCCCCCC4CCCN5CCC(CC1)OC45)OC23 (stereo not drawn) [XeC]
effect on L444P GC activity (L444P GC; IP3R inhibitors (FIG. 33)): None of the compounds enhanced L444P GC activity

Structure (SMILES): COc1ccc(S(=O)(=O)N(CCO)c2ccccc2CN(C)C/C=C/c2ccc(Cl)cc2)cc1 [KN93]
effect on L444P GC activity (L444P GC; IP3R inhibitors (FIG. 33)): None of the compounds enhanced L444P GC activity

Structure (SMILES): CC(=O)N[C@H]1C(O)N[C@H](CO)[C@H](O)[C@@H]1O (stereo partly drawn) [ADNJ, 2-Acetamido-2-deoxynojirimycin]
Hex α-site activity as % of cellular WT Hex α-site activity (G269S/1278insTATC HexA): 25%
cellular Hex α-site activity, fold increase (G269S/1278insTATC HexA): 2.5 fold

Continued, in another order:

effect on L444P GC activity, intact cell GC enzyme assay (L444P GC; thermosensitive TRP channel modulators, 5-day incubation): notably increased
Structure (SMILES): N.N.N.N.N.N.N.N.N.N.N.N.N.N.[Cl-].[Cl-].[Cl-].[Cl-].[Cl-].[Cl-].[O-2].[O-2].[Ru+3].[Ru+3].[Ru+4] [ruthenium red]

L444P GC activity, maximum fold increase (L444P GC; [1]): 1.2 fold
Structure (SMILES): CNCCN1C(=O)[C@H](O)[C@H](c2ccc(O)cc2)Sc2ccccc21 [Compound 4, (2S,3S)-2,3-Dihydro-3-hydroxy-2-(4-hydroxyphenyl)-5-[2-(methylamino)ethyl]-1,5-benzothiazepin-4(5H)-one]
IC50 (Ca^2+ channel): 127 µM

L444P GC activity, maximum fold increase (L444P GC; [1]): 1.3 fold
Structure (SMILES): CN(C)CCN1C(=O)[C@H](O)[C@H](c2ccc(O)cc2)Sc2ccccc21 [Compound 3, (2S,3S)-5-[2-(Dimethylamino)ethyl]-2,3-dihydro-3-hydroxy-2-(4-hydroxyphenyl)-1,5-benzothiazepin-4(5H)-one]
IC50 (Ca^2+ channel): 45.5 µM

GC proteostasis regulator function (L444P GC; L444P GC cells): not a GC proteostasis regulator
Structure (SMILES): CC(=O)N[C@@H](CSC(=O)[C@]1([C@@H](O)C(C)C)NC(=O)[C@H](C)[C@@H]1O)C(=O)O [lactacystin]

effect on L444P GC activity (L444P GC; 0.3 to 100 μM, 7 days, intact cell GC activity assay (FIG. 19D)): do not increase L444P GC activity
Structure (SMILES): COc1ccc([C@@H]2Sc3ccccc3NC(=O)[C@@H]2O)cc1 [Compound 6]
Ca^2+ channel antagonist activity (Ca^2+ channel; according to reported SAR studies, lack basic amino nitrogen pharmacophore): not Ca^2+ channel antagonists
